Read-outs that look alike come from different tables or passages of the source.
Key:
[1] = properties of commercial hydrogen peroxide; cited from earlier work
[2] = properties of commercial hydrogen peroxide; cited from earlier work; remark: listed apart in the source
[3] = properties of commercial hydrogen peroxide; cited from earlier work; remark: listed apart in the source
[4] = properties of commercial hydrogen peroxide; cited from earlier work; remark: listed apart in the source
[5] = system: spores of bacillus subtilis; conditions: alcohol at concentrations of about 20% (or higher); cited from earlier work
[6] = Miscibility in water; type: physicochemical
Procedure: (§1) The above listed components were weighed separately, taking particular care with the concentrated sulfuric acid, which must be handled under a hood and with protection gloves. The components were mixed in the above listed sequence, making sure that the component being dealt with was perfectly mixed before adding the next one. After addition of the components, the mixture was stirred for 15 minutes, left to rest for 10 minutes and a sample was retrieved for checking its chemical and physical properties.
(§2) The following chemical-physical properties were measured: […]

[7] = Specific gravity of the solutions at 20° C.; type: physicochemical
Procedure: as §1, §2

[8] = pH (10% w/w in deionized water) at 20° C.; type: physicochemical
Procedure: as §1, §2

[9] = cited from earlier work
[10] = cited from earlier work; remark: listed apart in the source
[11] = system: Enterovirus; conditions: cited from earlier work
[12] = system: Poliovirus; conditions: cited from earlier work
[13] = system: Gram + and Gram − bacteria, fungi and yeasts; conditions: cited from earlier work
[14] = system: Bacterial spores; conditions: cited from earlier work

OO [Hydrogen peroxide, 35% w/w, Hydrogen peroxide]
Specific gravity at 20° C. [1]: 1.132 g/mL | pH (10% w/w in deionized water) at 20° C. [2]: 2.00-3.00 U of pH | Vapor pressure at 20° C. [3]: 17-20 mbar | Miscibility in water [4]: full

CCO [Ethyl alcohol]
effect with PAA as regards its germicidal activity [5]: synergistic effect

OO [Hydrogen peroxide, 50% w/w, Hydrogen peroxide]
Miscibility in water [6]: full | Specific gravity at 20° C. [7]: 1.280 g/mL | pH (10% w/w in deionized water) at 20° C. [8]: 2.00-3.00 U of pH

CC(C)O [Isopropyl alcohol]
effect with PAA as regards its germicidal activity [5]: synergistic effect

CC(=O)OO [PAA, peracetic acid]
loss of active ingredient per month ([9]; 40% w/w solution, per month): 1 to 2% | solubility in water [10]: infinite | Contact times ([11]; 2000 ppm PAA): 10 to 30 min | Ppm (%) of PAA [11]: 2000 (0.2%) Ppm | Contact times [12]: 15 min | Ppm (%) of PAA [12]: 1500-2250 Ppm | Contact times ([13]; 100 ppm PAA): ≤ 5 min | Effect on medical and surgical instruments ([13]; 100 ppm PAA): Low-level disinfection | Contact times ([13]; in the presence of organic material, 200-500 ppm PAA): ≤ 5 min | Effect on medical and surgical instruments ([13]; in the presence of organic material): Low-level disinfection | Ppm (%) of PAA ([13]; inactivated and killed in the presence of organic material): 200-500 Ppm | Ppm (%) of PAA ([13]; microorganisms are inactivated and killed): 100 (0.01%) Ppm | Effect on medical and surgical instruments [14]: Sterilization | Ppm (%) of PAA [14]: 500-30,000 Ppm | Contact times ([14]; lower end of the 500-30,000 ppm range): 15 min | Contact times ([14]; upper end of the 500-30,000 ppm range): 0.25 min

OO [hydrogen peroxide]
loss of active ingredient per year ([9]; hydrogen peroxide (30 to 90%), per year): less than 1%

From patent US6514509B2, “Method for production on the spot of a disinfectant peracetic acid system” (Farmec S.n.c. di Tabasso Renato & C., priority 1998, dated 2003)
